The values below are quoted from earlier work in patent US9907782B2, “Treatment or prevention of seborrheic keratosis using artemisinin and derivatives thereof” (EPIPHARM AG, priority 2014, dated 2018).

Structures are written as SMILES.

In one data set the test system is psoriasis. Particulars: topical; three psoriasis patients.
The subject of another data set is melanin synthesis. The conditions noted are these: according to US 2010/0061948 A1, allegedly.
Another data set has as its target T1, tyrosinase (Homo sapiens, UniProt P14679).
T1 sequence (P14679 19-529): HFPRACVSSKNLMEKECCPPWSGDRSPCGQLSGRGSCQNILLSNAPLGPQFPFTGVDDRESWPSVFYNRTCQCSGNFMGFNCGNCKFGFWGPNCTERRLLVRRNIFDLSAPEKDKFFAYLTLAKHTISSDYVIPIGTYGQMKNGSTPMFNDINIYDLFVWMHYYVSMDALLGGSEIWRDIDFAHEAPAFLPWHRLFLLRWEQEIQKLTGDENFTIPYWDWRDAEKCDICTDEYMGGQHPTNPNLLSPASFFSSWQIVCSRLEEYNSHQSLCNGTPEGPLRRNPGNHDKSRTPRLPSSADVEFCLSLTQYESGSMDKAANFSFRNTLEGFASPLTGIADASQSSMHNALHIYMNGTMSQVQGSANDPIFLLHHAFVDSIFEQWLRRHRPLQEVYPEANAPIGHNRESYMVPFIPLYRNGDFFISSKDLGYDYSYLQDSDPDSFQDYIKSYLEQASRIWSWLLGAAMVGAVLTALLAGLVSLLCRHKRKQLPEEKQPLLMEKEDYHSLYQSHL
Particulars: according to US 2010/0061948 A1, allegedly.

Data set [1] deals with seborrheic keratosis lesions. The conditions noted are these: for clinical improvement: once daily application, calcipotriene 0.005% ointment, imiquimod 5% cream.
Data set [2] concerns seborrheic keratosis lesions.

`C[C@@H]1CC[C@H]2[C@@H](C)C(=O)O[C@@H]3O[C@@]4(C)CC[C@@H]1[C@]32OO4` [artemisinin]: the solubility in water result is recorded as “very hard to dissolve in water”. In addition, in the data set on psoriasis, the treatment of psoriasis entry was “successfully”. The melanin synthesis result in the data set with melanin synthesis is reported as “suppressed”. Besides, the tyrosinase activity entry at tyrosinase was “suppressed”.

For `C[C@H]1[C@H](OC(=O)CCC(=O)O)O[C@@H]2O[C@@]3(C)CC[C@H]4[C@H](C)CC[C@@H]1[C@@]24OO3` [artesunate], the solubility in water result is reported as “more water-soluble”.

In the case of `C=C1/C(=C\C=C2/CCC[C@]3(C)[C@@H]([C@H](C)/C=C/[C@@H](O)C4CC4)CC[C@@H]23)C[C@@H](O)C[C@@H]1O` [calcipotriene], the clinical improvement result in data set [1] (tazarotene 0.1% cream) is “did not result in any clinical improvement”.

Turning to `C[C@H]1[C@@H](O)O[C@@H]2O[C@@]3(C)CC[C@H]4[C@H](C)CC[C@@H]1[C@@]24OO3` [dihydroartemisinin], the solubility in water entry is given as “more water-soluble”.

Regarding `CC(C)Cn1cnc2c(N)nc3ccccc3c21` [imiquimod], the clinical improvement result in data set [1] (tazarotene 0.1% cream) was “did not result in any clinical improvement”.

In the case of `CCOC(=O)c1ccc(C#Cc2ccc3c(c2)C(C)(C)CCS3)nc1` [tazarotene], in data set [1] (bi-daily application, tazarotene 0.1% cream), the “clinical and histological improvement” value is “less than half the patients”. In addition, in data set [1] (tazarotene 0.1% cream), the clinical improvement entry is listed as “did not result in any clinical improvement”. For the same molecule, the “patients reporting burning, pruritus and redness (irritation)” value in data set [1] (topical tazarotene) is given as “⅔”.

Turning to `NC(N)=O` [urea], the side effects result in data set [2] (50% urea under occlusion) is reported as “no side effects were reported”. In data set [2] (50% urea under occlusion and digitally scraping the lesions, lesions did persist albeit with reduced size), the “thickness of seborrheic keratosis lesions” value is “some reduction of the thickness”.
